How the values were obtained:
[1] = Metabolic stability in human liver microsomes assessed as compound remaining at 10 uM incubated for 1 hr
[2] = Metabolic stability in CD1 mouse liver microsomes assessed as compound remaining at 10 uM incubated for 1 hr
[3] = Apparent volume of distribution in BALB/c mouse at 1 mg/kg, iv measured upto 24 hrs by LC-MS/MS analysis; conditions: in vivo
Cytochrome P450 3A4 = Cytochrome P450 3A4 (Homo sapiens, UniProt P08684); experiment: Inhibition of CYP3A4 in human liver microsomes at 20 uM using testosterone as substrate incubated for 60 mins by HPLC analysis; format: ADME; conditions: 1 h
CYP2E1 = CYP2E1 (Homo sapiens, UniProt P05181); experiment: Inhibition of CYP2E1 in human liver microsomes at 20 uM using chlorzoxazone as substrate incubated for 60 mins by HPLC analysis relative to control; format: ADME; conditions: probe chlorzoxazone
CT26 [4] = experiment: Antitumor activity against mouse CT26 cells xenografted in BALB/c mouse assessed as tumor growth inhibition at 16 mg/kg, po administerd daily and measured after two weeks; conditions: 336 h, read-out: TGI
[5] = Half life in BALB/c mouse at 1 mg/kg, iv measured upto 24 hrs by LC-MS/MS analysis; conditions: in vivo
in vitro [6] = conditions: human, liver microsomes
in vivo [7] = conditions: BALB/c, mouse, po, 5 mg/kg
Description: Cmax in BALB/c mouse at 5 mg/kg, po measured upto 24 hrs by LC-MS/MS analysis

CT26 [8] = experiment: Antitumor activity against mouse CT26 cells xenografted in BALB/c mouse assessed as tumor growth inhibition at 150 mg/kg, po administerd daily and measured after two weeks; conditions: 336 h, read-out: TGI
CYP2B6 = target: T1, CYP2B6 (Homo sapiens, UniProt P20813); experiment: Inhibition of CYP2B6 in human liver microsomes at 20 uM incubated for 60 mins by HPLC analysis relative to control; format: ADME
T1 sequence (P20813 whole entry): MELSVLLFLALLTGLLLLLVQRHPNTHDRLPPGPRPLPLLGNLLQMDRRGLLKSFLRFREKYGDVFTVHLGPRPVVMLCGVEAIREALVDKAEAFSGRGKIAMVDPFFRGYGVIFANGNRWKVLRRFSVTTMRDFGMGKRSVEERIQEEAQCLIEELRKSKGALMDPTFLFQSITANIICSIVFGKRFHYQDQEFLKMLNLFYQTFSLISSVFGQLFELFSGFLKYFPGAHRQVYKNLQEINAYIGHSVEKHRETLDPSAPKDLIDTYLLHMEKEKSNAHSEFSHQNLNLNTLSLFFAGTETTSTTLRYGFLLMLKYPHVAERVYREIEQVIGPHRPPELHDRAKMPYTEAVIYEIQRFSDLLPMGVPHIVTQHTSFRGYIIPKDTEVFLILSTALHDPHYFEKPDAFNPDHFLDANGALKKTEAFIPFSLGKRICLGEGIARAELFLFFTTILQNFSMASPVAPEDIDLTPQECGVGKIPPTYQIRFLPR

in vitro [9] = conditions: human, liver microsomes; remark: listed apart in the source
[10] = target: T2, Prostaglandin E2 receptor EP1 subtype (Homo sapiens, UniProt P34995); experiment: Antagonist activity at human EP1 expressed in CHO cells coexpressing G16-alpha assessed as intracellular calcium flux preincubated for 15 mins followed by addition of PGE2 by calcium flux assay; format: functional, cell-based
T2 sequence (P34995 whole entry): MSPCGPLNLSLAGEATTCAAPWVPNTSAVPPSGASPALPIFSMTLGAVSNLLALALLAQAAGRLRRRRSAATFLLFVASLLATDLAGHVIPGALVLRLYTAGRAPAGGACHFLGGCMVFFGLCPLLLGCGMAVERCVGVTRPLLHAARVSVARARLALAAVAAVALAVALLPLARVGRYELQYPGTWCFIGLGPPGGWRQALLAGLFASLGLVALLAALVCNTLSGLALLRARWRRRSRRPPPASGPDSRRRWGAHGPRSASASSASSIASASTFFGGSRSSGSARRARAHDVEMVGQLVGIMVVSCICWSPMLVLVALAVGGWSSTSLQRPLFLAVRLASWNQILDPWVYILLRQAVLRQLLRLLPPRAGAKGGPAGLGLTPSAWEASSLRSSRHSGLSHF

in vitro [11] = conditions: CD1, mouse, liver microsomes
in vivo [12] = conditions: BALB/c, mouse, po, 5 mg/kg; remark: listed apart in the source
Description: AUC (0 to infinity) in BALB/c mouse at 5 mg/kg, po measured upto 24 hrs by LC-MS/MS analysis

[13] = Clearance in BALB/c mouse at 1 mg/kg, iv measured upto 24 hrs by LC-MS/MS analysis; conditions: in vivo
[14] = target: T3, Prostaglandin E2 receptor EP4 subtype (Homo sapiens, UniProt P35408)
Description: Antagonist activity at human EP4 expressed in CHO cells coexpressing G16-alpha assessed as intracellular calcium flux preincubated for 15 mins followed by addition of PGE2 by calcium flux assay

[15] = target: T3, Prostaglandin E2 receptor EP4 subtype; experiment: Inhibition of human EP4 transfected in human HEK293 cells co transfected with CRE-luciferase assessed as reduction in PGE2-induced luciferase expression incubated for 24 hrs by luciferase reporter gene Assay
[16] = target: T3, Prostaglandin E2 receptor EP4 subtype; experiment: Inhibition of human EP4 transfected in human HEK293 cells co transfected with SmBit-beta-arrestin. assessed as reduction in PGE2 induced-beta-arrestin recruitment by NanoBiT beta-arrestin recruitment assay
CYP2C9 = CYP2C9 (Homo sapiens, UniProt P11712); experiment: Inhibition of CYP2C9 in human liver microsomes at 20 uM using tolbutamide as substrate incubated for 60 mins by HPLC analysis relative to control; format: ADME; conditions: probe tolbutamide
[17] = target: Prostaglandin E2 receptor EP2 subtype (Homo sapiens, UniProt P43116)
Description: Antagonist activity at human EP2 expressed in CHO cells coexpressing G16-alpha assessed as intracellular calcium flux preincubated for 15 mins followed by addition of PGE2 by calcium flux assay

in vivo [18] = conditions: BALB/c, mouse, iv, 1 mg/kg
CT26 [19] = experiment: Antitumor activity against mouse CT26 cells xenografted in BALB/c mouse assessed as tumor growth inhibition at 50 mg/kg, po administerd daily and measured after two weeks; conditions: 336 h, read-out: TGI
[20] = target: T4, Prostaglandin E2 receptor EP3 subtype (Homo sapiens, UniProt P43115)
T4 sequence (P43115 whole entry): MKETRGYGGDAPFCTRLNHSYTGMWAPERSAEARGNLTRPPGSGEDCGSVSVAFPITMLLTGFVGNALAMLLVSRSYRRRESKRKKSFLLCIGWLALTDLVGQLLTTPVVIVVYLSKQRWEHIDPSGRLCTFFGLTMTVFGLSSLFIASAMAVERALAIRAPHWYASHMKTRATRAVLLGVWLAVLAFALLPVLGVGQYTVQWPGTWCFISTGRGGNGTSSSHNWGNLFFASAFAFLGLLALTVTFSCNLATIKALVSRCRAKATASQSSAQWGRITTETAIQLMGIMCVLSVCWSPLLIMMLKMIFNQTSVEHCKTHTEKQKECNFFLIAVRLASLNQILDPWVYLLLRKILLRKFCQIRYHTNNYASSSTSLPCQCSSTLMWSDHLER
Description: Antagonist activity at human EP3 expressed in CHO cells coexpressing G16-alpha assessed as intracellular calcium flux preincubated for 15 mins followed by addition of PGE2 by calcium flux assay

[21] = Half life in BALB/c mouse at 5 mg/kg, po measured upto 24 hrs by LC-MS/MS analysis; conditions: in vivo

T3 sequence (P35408 whole entry): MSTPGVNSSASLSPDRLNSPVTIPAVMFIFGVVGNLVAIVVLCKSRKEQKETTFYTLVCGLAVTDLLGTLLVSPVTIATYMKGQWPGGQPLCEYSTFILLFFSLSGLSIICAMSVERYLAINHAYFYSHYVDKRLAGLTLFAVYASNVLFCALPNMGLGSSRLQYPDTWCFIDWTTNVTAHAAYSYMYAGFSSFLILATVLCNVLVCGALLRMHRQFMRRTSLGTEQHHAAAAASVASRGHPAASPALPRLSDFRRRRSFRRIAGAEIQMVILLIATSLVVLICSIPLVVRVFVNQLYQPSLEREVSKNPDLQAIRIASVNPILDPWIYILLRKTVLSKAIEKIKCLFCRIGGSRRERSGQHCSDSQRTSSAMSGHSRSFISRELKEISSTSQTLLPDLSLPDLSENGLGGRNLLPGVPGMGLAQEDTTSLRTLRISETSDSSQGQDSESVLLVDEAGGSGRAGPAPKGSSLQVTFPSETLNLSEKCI
Chain of Prostaglandin E2 receptor EP2 subtype (P43116 whole entry): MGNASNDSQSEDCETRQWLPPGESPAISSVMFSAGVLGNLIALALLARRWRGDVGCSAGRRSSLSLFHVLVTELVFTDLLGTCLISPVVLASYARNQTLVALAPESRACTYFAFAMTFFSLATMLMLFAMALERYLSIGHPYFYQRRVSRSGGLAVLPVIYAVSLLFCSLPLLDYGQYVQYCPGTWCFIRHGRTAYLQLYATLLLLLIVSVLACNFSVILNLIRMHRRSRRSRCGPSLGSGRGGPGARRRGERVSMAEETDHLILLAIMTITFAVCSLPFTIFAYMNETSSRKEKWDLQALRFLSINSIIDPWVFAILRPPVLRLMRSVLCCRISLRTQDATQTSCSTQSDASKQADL
Chain of CYP2C9 (P11712 whole entry): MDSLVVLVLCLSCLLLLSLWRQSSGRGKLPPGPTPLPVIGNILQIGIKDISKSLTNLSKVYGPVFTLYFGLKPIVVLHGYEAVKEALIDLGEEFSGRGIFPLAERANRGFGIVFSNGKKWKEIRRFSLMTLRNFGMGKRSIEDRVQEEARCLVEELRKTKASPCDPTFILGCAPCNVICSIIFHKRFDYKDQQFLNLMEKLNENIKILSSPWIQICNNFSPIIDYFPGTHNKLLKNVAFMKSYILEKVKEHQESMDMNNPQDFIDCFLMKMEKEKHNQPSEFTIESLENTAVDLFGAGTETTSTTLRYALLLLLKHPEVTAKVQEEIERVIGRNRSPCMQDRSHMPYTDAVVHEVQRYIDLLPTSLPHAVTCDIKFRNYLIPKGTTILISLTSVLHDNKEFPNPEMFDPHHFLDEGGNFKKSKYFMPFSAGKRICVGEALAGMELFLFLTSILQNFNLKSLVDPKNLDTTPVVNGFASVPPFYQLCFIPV
Chain of Cytochrome P450 3A4 (P08684 whole entry): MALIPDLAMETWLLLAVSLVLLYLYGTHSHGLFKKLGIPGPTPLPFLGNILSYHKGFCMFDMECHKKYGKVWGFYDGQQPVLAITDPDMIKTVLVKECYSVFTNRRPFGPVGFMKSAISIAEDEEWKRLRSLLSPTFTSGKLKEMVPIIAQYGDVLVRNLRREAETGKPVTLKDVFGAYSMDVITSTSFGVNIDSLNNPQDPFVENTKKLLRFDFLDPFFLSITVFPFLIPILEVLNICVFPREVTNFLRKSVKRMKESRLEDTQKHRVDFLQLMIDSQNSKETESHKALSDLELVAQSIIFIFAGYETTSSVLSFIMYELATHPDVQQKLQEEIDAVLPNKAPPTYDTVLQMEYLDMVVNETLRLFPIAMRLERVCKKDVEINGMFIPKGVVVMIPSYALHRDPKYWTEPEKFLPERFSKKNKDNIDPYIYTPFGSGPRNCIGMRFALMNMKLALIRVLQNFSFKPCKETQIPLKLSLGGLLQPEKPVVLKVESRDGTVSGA
Chain of CYP2E1 (P05181 whole entry): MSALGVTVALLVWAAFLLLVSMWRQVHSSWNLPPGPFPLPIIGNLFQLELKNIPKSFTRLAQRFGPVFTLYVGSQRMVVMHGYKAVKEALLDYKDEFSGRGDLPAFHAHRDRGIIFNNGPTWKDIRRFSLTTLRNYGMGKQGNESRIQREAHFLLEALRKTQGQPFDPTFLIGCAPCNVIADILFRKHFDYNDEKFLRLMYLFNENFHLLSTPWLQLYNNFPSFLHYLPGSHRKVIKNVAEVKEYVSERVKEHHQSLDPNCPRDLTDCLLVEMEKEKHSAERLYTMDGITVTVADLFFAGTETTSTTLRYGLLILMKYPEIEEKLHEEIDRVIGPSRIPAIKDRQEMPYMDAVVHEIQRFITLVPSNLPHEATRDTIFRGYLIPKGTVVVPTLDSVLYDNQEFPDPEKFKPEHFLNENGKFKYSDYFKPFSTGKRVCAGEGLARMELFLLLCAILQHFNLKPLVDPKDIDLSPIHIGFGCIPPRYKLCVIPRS

remaining at 1 h, 10 µM [1]: 100% | remaining at 1 h, 10 µM [2]: 82% | Vd at 24 h [3]: 10.2 L/kg | inhibition (INH) (Cytochrome P450 3A4): Not Active | inhibition at 1 h, 20 µM (CYP2E1): 66% | half-life at 24 h [5]: 4.1 h | microsomal CLint at 1 h, 10 µM (in vitro [6]): < 9.6 µL/min/mg | Cmax at 24 h (in vivo [7]): 194 ng/mL | inhibition at 1 h, 20 µM (CYP2B6): 26% | half-life at 1 h, 10 µM (in vitro [9]): > 2.42 h | IC50 [10]: > 10000 nM | half-life at 1 h, 10 µM (in vitro [11]): > 2.42 h | AUC(0-inf) at 24 h (in vivo [12]): 1240 ng·h/mL | clearance at 24 h [13]: 28.3 mL/min/kg | IC50 [14]: 6.1 nM | IC50 [15]: 5.2 nM | IC50 [16]: 0.4 nM | inhibition at 1 h, 20 µM (CYP2C9): 33% | IC50 [17]: > 10000 nM | AUC(0-inf) at 24 h (in vivo [18]): 575 ng·h/mL | IC50 [20]: > 10000 nM | half-life at 24 h [21]: 4.7 h
SMILES: C/C=C/c1nnn(Cc2ccc(C(F)(F)F)cc2)c1C(=O)N[C@@H](C)c1ccc(C(=O)O)cc1
inhibition in vivo at 16 mg/kg (CT26 [4]): 24.6% | inhibition in vivo at 150 mg/kg (CT26 [8]): 63.8% | inhibition in vivo at 50 mg/kg (CT26 [19]): 54.7%

— ChEMBL document CHEMBL4376865, “Discovery and Characterization of 1H-1,2,3-Triazole Derivatives as Novel Prostanoid EP4 Receptor Antagonists for Cancer Immunotherapy” (J Med Chem, 2020)
